According to PubChem BioAssay (NCI):
Several values for one entry are separate records, joined by “and”; a condition that tells them apart may be missing. Equal values may be shown once.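 Grown in 96-well plates, cells were treated for 48 hours with each compound at five concentrations. Insufficient inhibition: endpoint recorded as highest concentration tested. Here, GI50 denotes the concentration required for 50% inhibition of growth. TGI: total growth inhibition.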

Key:
Assay in all cases: inhibition of tumour cell growth, NCI panel, 48 h
[1] = test system: CAKI-1 renal
[2] = test system: OVCAR-5 ovarian
[3] = test system: T-47D breast
[4] = test system: 786-0 renal
[5] = test system: KM12 colon
[6] = test system: HCC-2998 colon
[7] = test system: SNB-19 CNS
[8] = test system: SNB-75 CNS
[9] = test system: MOLT-4 leukemia
[10] = test system: K-562 leukemia

SMILES: COc1ccc(Nc2ccc3ccccc3c2-c2c(O)ccc3ccccc23)cc1
- TGI [1]: 31.7 µM
- TGI [2]: 31.8 µM
- TGI [3]: 34 µM
- TGI [4]: 32.2 µM
- TGI [5]: 29.5 µM
- TGI [6]: 29.1 µM
- TGI [7]: 37.2 µM
- TGI [8]: 46.2 µM
- TGI [9]: 34.3 µM
- TGI [10]: 54.4 µM

SMILES: C=CC[n+]1c2ccccc2n2cc([N+](=O)[O-])ccc21
- TGI [1]: > 100 µM
- TGI [2]: > 100 µM
- TGI [3]: > 100 µM
- TGI [4]: > 100 µM
- TGI [5]: > 100 µM
- TGI [6]: > 100 µM
- TGI [7]: > 100 µM
- TGI [8]: > 100 µM
- TGI [9]: 67.5 µM
- TGI [10]: 59.2 µM

SMILES: C=CCOn1c(C=C)nc2ccc(C)cc21
- TGI [1]: 49.3 µM
- TGI [2]: 41.7 µM
- TGI [3]: 43.5 µM
- TGI [4]: 32.9 µM
- TGI [5]: 44.2 µM
- TGI [6]: 33 µM
- TGI [7]: 46 µM
- TGI [8]: 43.4 µM
- TGI [9]: 68.8 µM
- TGI [10]: 55.3 µM

SMILES: CCCCCCCCCCCCCCCCCCNc1nc(=O)n(C2CC(O)C(COP(=O)(O)O)O2)cc1F (stereo unspecified)
- TGI [1]: > 100 µM
- TGI [2]: > 100 µM
- TGI [3]: > 100 µM
- TGI [4]: > 100 µM
- TGI [5]: > 100 µM
- TGI [6]: > 100 µM
- TGI [7]: > 100 µM
- TGI [8]: > 100 µM
- TGI [9]: > 96.1 µM
- TGI [10]: > 100 µM

SMILES: CC1=C2C(=CO[C@H](C)[C@H]2C)C(=O)C(C(=O)O)=C1O
- GI50 [1]: 16.6 µM
- TGI [1]: 54.2 µM and 77.8 µM
- GI50 [2]: 29.5 µM
- TGI [2]: 73 µM and 128 µM
- TGI [3]: > 94.5 µM
- TGI [4]: 62.7 µM
- GI50 [5]: 19.2 µM
- TGI [5]: 87.5 µM and 48.8 µM
- GI50 [6]: 23.7 µM
- TGI [6]: 42.6 µM and 57.9 µM
- GI50 [7]: 27.9 µM
- TGI [7]: 55.6 µM and > 67.7 µM
- GI50 [8]: 21.2 µM
- TGI [8]: 111 µM and > 62.1 µM
- GI50 [9]: 34.1 µM
- TGI [9]: 40 µM and > 93.6 µM
- GI50 [10]: 36.9 µM
- TGI [10]: 54.8 µM

SMILES: Cc1cc2c([nH]c3ccccc32)c(O)c1-c1c(C)cc2c([nH]c3ccccc32)c1O
- GI50 [1]: 14.7 µM
- TGI [1]: 27.9 µM
- GI50 [2]: 15 µM
- TGI [2]: 29 µM
- TGI [3]: 31.3 µM
- TGI [4]: 26.6 µM
- TGI [5]: 21.7 µM
- TGI [6]: 22.4 µM
- TGI [7]: 32.2 µM
- TGI [8]: 27.5 µM
- GI50 [9]: 3.62 µM
- TGI [9]: 16.3 µM
- GI50 [10]: 12.3 µM
- TGI [10]: 25.9 µM

SMILES: NNC(=O)C1(NC(=O)c2ccccc2)C(c2ccccc2)C(c2ccccc2)=NN1c1ccccc1 (stereo unspecified)
- TGI [1]: 92 µM
- TGI [2]: > 100 µM
- TGI [3]: > 100 µM
- TGI [4]: > 100 µM
- TGI [5]: > 100 µM
- TGI [6]: > 100 µM
- TGI [7]: > 100 µM
- TGI [8]: > 100 µM
- TGI [9]: 40.7 µM
- TGI [10]: > 100 µM

SMILES: C=C(C)[C@H]1C2=CC(C)=C(O2)[C@@H](O[C@@H]2c3oc(cc3C)[C@H](C(=C)C)[C@H]3C=C(CC[C@H]2C(=C)C)C(=O)O3)[C@H](C(=C)C)CCC2=C[C@H]1OC2=O
- TGI [1]: > 100 µM
- TGI [2]: > 100 µM
- TGI [3]: > 100 µM
- TGI [4]: > 100 µM
- TGI [5]: > 100 µM
- TGI [6]: > 100 µM
- TGI [7]: > 100 µM
- TGI [8]: > 100 µM
- TGI [9]: > 100 µM
- TGI [10]: > 100 µM

SMILES: N#Cc1cc2c(n(C3OC(CO)C(O)C(O)C3O)c1=S)CCCCCC2 (stereo unspecified)
- TGI [1]: > 100 µM
- TGI [2]: > 100 µM
- TGI [3]: > 100 µM
- TGI [4]: > 100 µM
- TGI [5]: > 100 µM
- TGI [6]: > 100 µM
- TGI [7]: > 100 µM
- TGI [8]: > 100 µM
- TGI [9]: > 100 µM
- TGI [10]: > 100 µM

SMILES: CCOP(=O)(OCC)/C(=C/c1cccs1)CC(C)=O
- TGI [1]: > 100 µM
- TGI [2]: > 100 µM
- TGI [3]: > 100 µM
- TGI [4]: > 100 µM
- TGI [5]: > 100 µM
- TGI [6]: > 100 µM
- TGI [7]: > 100 µM
- TGI [8]: > 100 µM
- TGI [9]: > 100 µM
- TGI [10]: > 100 µM

SMILES: COc1ccc(C(SC2C(O)C(CO)OC2n2ccc(=O)[nH]c2=O)(c2ccccc2)c2ccc(OC)cc2)cc1 (stereo unspecified)
- TGI [1]: > 100 µM
- TGI [2]: 39.7 µM
- TGI [3]: 48.7 µM
- TGI [4]: 32 µM
- TGI [5]: 39.2 µM
- TGI [6]: 30.3 µM
- TGI [7]: 41 µM
- TGI [8]: 48.9 µM
- TGI [9]: > 100 µM
- TGI [10]: > 100 µM

SMILES: Nc1ccc(S(=O)(=O)Nc2nc3ccccc3nc2N2CCCCCC2)cc1
- TGI [1]: 82.7 µM
- TGI [2]: > 100 µM
- TGI [3]: > 100 µM
- TGI [4]: > 100 µM
- TGI [5]: > 100 µM
- TGI [6]: 33.4 µM
- TGI [7]: > 100 µM
- TGI [8]: > 100 µM
- TGI [9]: 55.3 µM
- TGI [10]: 52 µM

SMILES: CN1CC2=C(NC(=S)NC2c2ccccc2)/C(=C/c2ccccc2)C1 (stereo unspecified)
- TGI [1]: > 100 µM
- TGI [2]: > 100 µM
- TGI [3]: > 100 µM
- TGI [4]: > 100 µM
- TGI [5]: 68 µM
- TGI [6]: > 100 µM
- TGI [7]: > 100 µM
- TGI [8]: > 100 µM
- TGI [9]: 44.7 µM
- TGI [10]: > 100 µM

SMILES: Cc1cc(C)c2c(c1)C(=O)/C(=C/c1ccccc1C(=O)O)C2
- TGI [1]: > 100 µM
- TGI [3]: > 100 µM
- TGI [4]: > 100 µM
- TGI [5]: > 100 µM
- TGI [6]: > 100 µM
- TGI [7]: > 100 µM
- TGI [8]: > 100 µM
- TGI [9]: > 100 µM
- TGI [10]: > 100 µM

SMILES: CN(C)/N=N/c1nc2c(c(=O)n(C)c(=O)n2C)n1CC(O)CO (stereo unspecified)
- TGI [1]: > 100 µM
- TGI [2]: > 100 µM
- TGI [3]: > 100 µM
- TGI [4]: > 100 µM
- TGI [5]: > 100 µM
- TGI [6]: > 100 µM
- TGI [7]: > 100 µM
- TGI [8]: > 100 µM
- TGI [9]: > 100 µM
- TGI [10]: > 100 µM

SMILES: CC(=O)Nc1ccc(OC/C(N)=N/NC(=O)c2ccncc2)cc1
- TGI [1]: > 100 µM
- TGI [2]: > 100 µM
- TGI [3]: > 100 µM
- TGI [4]: > 100 µM
- TGI [5]: > 100 µM
- TGI [6]: > 100 µM
- TGI [7]: > 100 µM
- TGI [8]: > 100 µM
- TGI [9]: > 100 µM
- TGI [10]: > 100 µM
